28 compounds from US20240383901A1, “SUBSTITUTED PYRROLO[2,3-D]PYRIMIDINES, THEIR PREPARATION AND THEIR THERAPEUTIC APPLICATION” (SANOFI, priority 2021, published 2024) can be followed below.

Experiment [1] deals with T1, full-length LRRK2 G2019S (Homo sapiens, UniProt Q5S007, G2019S).
T1 construct: DYKDDDDK (FLAG)
The experiment can be described thus: LRRK2-G2019S kinase activity assay (Lanthascreen TR-FRET). The class given is biochemical. The conditions noted are these: 1.1 mM ATP. How it is done: (§1) The potency of compounds was evaluated in vitro using the Lanthascreen® technology (ThermoFisher Scientific).
(§2) In a typical experiment, the reaction assay buffer contains 50 mM Tris pH8.2, 1 mM EGTA, 2.5 mM MgCl2, 0.05% Triton X100, 0.15% BSA and 1 mM DTT. The detection of the assay is performed using 1 nM Terbium labeled anti-phospho-LRRKtide (ThermoFisher Scientific) diluted in a TR-FRET buffer (ThermoFisher Scientific).
(§3) The experimental procedure was performed with Greiner small volume® 384-well. […] The working solution of compounds was prepared in a separate Greiner microplate.
(§4) The kinase reaction was initiated by addition of the ATP/LRRKtide substrate mix diluted in the reaction assay buffer. The reaction mix was incubated for at least 10 minutes at room temperature (initial velocity conditions). Reaction was stopped by addition of Terbium labeled anti-phospho-LRRKtide diluted into the detection buffer supplemented with EDTA (ThermoFisher Scientific). Plates are incubated for at least 30 minutes at room temperature and read on an Envision™ multimode plate reader (PerkinElmer) with LanthaScreen™. The TR-FRET 520:495 nm emission ratio was calculated and used to determine the IC50 value from a dose response curve fit to the 4-parameter logistic equation. The activity with respect to LRRK2 kinase in this test is given by the concentration which inhibits 50% of the LRRK2 activity (or IC50) in nM.
In general terms: In TR-FRET formats the signal depends on donor and acceptor labels being close together.

The target of experiment [2] is T2, full-length LRRK2 wild type (Homo sapiens, UniProt Q5S007).
T2 construct: DYDDDDK tagged full-length LRRK2 wild type is used
T2 sequence (Q5S007 whole entry): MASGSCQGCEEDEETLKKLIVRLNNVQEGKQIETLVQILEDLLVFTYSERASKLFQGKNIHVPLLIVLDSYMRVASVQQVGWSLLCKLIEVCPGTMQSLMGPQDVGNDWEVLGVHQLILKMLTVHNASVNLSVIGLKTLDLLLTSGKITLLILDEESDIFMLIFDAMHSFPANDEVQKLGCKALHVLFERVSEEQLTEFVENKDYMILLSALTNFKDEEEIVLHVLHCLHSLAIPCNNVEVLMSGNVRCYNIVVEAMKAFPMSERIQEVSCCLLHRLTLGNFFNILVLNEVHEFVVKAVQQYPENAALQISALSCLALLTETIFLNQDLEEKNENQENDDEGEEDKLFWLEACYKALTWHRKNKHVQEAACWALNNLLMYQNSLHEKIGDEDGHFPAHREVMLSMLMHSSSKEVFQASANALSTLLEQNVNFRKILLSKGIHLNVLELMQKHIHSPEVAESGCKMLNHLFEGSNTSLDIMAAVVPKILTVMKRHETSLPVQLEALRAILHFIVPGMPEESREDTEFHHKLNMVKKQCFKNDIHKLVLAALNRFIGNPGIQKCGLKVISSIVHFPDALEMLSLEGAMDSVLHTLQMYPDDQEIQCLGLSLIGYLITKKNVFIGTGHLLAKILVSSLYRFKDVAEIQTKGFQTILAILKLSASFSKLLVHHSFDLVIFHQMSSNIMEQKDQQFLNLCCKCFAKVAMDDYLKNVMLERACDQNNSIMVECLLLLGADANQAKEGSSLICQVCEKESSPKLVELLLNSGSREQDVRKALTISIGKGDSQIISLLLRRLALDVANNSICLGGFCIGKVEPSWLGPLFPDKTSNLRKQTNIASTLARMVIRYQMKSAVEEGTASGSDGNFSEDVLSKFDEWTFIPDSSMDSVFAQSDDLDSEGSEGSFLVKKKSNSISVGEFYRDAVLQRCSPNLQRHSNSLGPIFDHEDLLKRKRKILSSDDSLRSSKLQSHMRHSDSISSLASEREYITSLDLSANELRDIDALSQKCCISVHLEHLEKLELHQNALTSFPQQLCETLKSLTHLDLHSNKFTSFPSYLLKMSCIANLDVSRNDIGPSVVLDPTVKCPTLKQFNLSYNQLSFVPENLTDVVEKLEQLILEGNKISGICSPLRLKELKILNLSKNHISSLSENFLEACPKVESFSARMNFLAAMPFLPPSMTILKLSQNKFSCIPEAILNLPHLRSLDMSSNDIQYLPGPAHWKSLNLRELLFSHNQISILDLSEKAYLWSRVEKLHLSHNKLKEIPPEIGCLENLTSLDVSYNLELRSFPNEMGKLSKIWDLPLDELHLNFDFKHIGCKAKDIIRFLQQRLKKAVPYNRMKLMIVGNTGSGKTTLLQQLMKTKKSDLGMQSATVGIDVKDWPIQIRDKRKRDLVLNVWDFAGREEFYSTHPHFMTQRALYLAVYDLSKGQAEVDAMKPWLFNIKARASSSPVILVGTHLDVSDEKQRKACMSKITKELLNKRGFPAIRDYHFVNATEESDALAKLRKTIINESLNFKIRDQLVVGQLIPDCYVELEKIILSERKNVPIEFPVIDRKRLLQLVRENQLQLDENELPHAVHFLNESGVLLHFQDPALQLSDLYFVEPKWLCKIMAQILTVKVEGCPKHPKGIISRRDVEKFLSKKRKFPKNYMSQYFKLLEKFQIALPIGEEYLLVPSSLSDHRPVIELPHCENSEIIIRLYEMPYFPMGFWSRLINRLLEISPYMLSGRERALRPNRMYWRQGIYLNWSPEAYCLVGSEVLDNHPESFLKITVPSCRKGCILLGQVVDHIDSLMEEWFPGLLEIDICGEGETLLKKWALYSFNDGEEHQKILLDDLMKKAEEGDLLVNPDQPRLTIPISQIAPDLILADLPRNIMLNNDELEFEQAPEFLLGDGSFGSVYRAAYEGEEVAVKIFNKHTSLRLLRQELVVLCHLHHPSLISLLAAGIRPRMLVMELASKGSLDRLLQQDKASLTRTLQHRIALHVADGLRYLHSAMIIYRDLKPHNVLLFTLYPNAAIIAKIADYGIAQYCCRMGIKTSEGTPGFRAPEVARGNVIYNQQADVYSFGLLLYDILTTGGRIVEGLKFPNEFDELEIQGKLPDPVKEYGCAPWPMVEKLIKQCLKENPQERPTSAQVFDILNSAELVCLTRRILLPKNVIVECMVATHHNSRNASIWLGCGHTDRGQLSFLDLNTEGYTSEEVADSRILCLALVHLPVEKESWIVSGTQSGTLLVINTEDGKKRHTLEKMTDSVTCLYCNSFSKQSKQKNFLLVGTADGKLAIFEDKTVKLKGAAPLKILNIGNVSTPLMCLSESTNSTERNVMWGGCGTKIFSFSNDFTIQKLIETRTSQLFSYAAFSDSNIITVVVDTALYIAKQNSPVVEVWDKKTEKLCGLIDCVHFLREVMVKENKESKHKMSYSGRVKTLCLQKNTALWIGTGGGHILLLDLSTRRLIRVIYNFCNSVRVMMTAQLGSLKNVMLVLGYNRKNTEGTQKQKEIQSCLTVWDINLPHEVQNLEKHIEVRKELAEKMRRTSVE
The experiment can be described thus: LRRK2 WT assay (Assay A, Lanthascreen TR-FRET, 500 uM ATP). The class given is biochemical. The conditions noted are these: Assay A (values without *). How it is done: as §1, §2, §3, §4

T1 sequence (Q5S007 whole entry G2019S): as the sequence (Q5S007 whole entry) above, with G2019S counted along it

Broadly, the IC50 is the point on the concentration scale where inhibition reaches its midpoint. Lower therefore signals higher potency. For `COCC(C)n1cc(Nc2ncc3cc(C#N)n([C@@H](C)COC)c3n2)c(OC2COC2)n1` (single isomer, unassigned) [Example 129], the IC50 in experiment [1] amounted to 37 nM; in experiment [2], 41 nM. In the case of `COCC(C)n1c(C#N)cc2cnc(Nc3cn(C4CCC(C)(O)CC4)nc3OC3CC3)nc21` [Example 106, cis-2-((3-cyclopropoxy-1-(4-hydroxy-4-methylcyclohexyl)-1H-pyrazol-4-yl)amino)-7-((S)-1-methoxypropan-2-yl)-7H-pyrrolo[2,3-d]pyrimidine-6-carbonitrile], the IC50 was 55 nM in experiment [1] and 70 nM in experiment [2]. Take `CC(C(F)F)n1cc(Nc2ncc3cc(C#N)n([C@H]4COC[C@@H]4C)c3n2)c(OC2COC2)n1` (single isomer, unassigned) [Example 4]: the IC50 in experiment [1] and in experiment [2] was 1 nM in each case. With `CO[C@@H]1COC[C@H]1Oc1nn(C)cc1Nc1ncc2cc(C#N)n([C@H]3COC[C@@H]3C)c2n1` (single isomer, unassigned) [Example 12], the IC50 was determined as 6 nM in experiment [1] and 8 nM in experiment [2]. The like results for `C[C@@H]1COCC[C@H]1n1c(C#N)cc2cnc(Nc3cn(CCO)nc3OC3COC3)nc21` (single isomer, unassigned) [Example 160, 2-((1-(2-hydroxyethyl)-3-(oxetan-3-yloxy)-1 H-pyrazol-4-yl)amino)-7-(trans-3-methyltetrahydro-2H-pyran-4-yl)-7H-pyrrolo[2,3-d]pyrimidine-6-carbonitrile] were, in that order, 258 nM and 325 nM.

Take `C[C@H]1COC[C@@H]1n1c(C#N)cc2cnc(Nc3cn(C4COC4)nc3OC3CC3)nc21` [Example 30, 2-((3-Cyclopropoxy-1-(oxetan-3-yl)-1H-pyrazol-4-yl)amino)-7-((3R,4R)-4-methyltetrahydrofuran-3-yl)-7H-pyrrolo[2,3-d]pyrimidine-6-carbonitrile]: the IC50 in experiment [1] amounted to 3 nM; in experiment [2], 5 nM. The like results for `COCC(C)n1cc(Nc2ncc3cc(C#N)n([C@H]4COC[C@@H]4C)c3n2)c(OC2COC2)n1` (stereo partly drawn) [Example 128, 2-((1-(1-Methoxypropan-2-yl)-3-(oxetan-3-yloxy)-1 H-pyrazol-4-yl)amino)-7-((3R,4R)-4-methyltetrahydrofuran-3-yl)-7H-pyrrolo[2,3-d]pyrimidine-6-carbonitrile] were, in that order, 104 nM and 81 nM. The like results for `[2H]C([2H])([2H])n1cc(Nc2ncc3cc(C#N)n([C@@H](C)COC)c3n2)c(O[C@@H]2COC[C@H]2O)n1` (single isomer, unassigned) [Example 117] were, in that order, 50 nM and 34 nM. Turning to `COCC(C)n1cc(Nc2ncc3cc(C#N)n(C4CCOCC4)c3n2)c(OC2CC2)n1` (single isomer, unassigned) [Example 126, 2-((3-cyclopropoxy-1-(1-methoxypropan-2-yl)-1 H-pyrazol-4-yl)amino)-7-(tetrahydro-2H-pyran-4-yl)-7H-pyrrolo[2,3-d]pyrimidine-6-carbonitrile], the IC50 in experiment [1] came to 83 nM; in experiment [2] it was 77 nM. In the same order, the values of `COCn1cc(Nc2ncc3cc(C#N)n([C@H]4COC[C@@H]4C)c3n2)c(O[C@@H]2CO[C@H]2C)n1` (mixture of isomers) [Example 39, 2-[[1-(methoxymethyl)-3-[(trans)-2-methyloxetan-3-yl]oxy-pyrazol-4-yl]amino]-7-[(3R,4R)-4-methyltetrahydrofuran-3-yl]pyrrolo[2,3-d]pyrimidine-6-carbonitrile] are 8 nM and 10 nM. In the case of `COCC(C)n1cc(Nc2ncc3cc(C#N)n(C4CCOCC4)c3n2)c(OC2CC2)n1` (single isomer, unassigned) [Example 127, 2-((3-cyclopropoxy-1-(1-methoxypropan-2-yl)-1 H-pyrazol-4-yl)amino)-7-(tetrahydro-2H-pyran-4-yl)-7H-pyrrolo[2,3-d]pyrimidine-6-carbonitrile], the IC50 in experiment [1] was found to be 183 nM; in experiment [2], 144 nM. In the same order, the values of `[2H]C([2H])([2H])n1cc(Nc2ncc3cc(C#N)n([C@H]4COC[C@@H]4C)c3n2)c(O[C@@H]2COC[C@H]2O)n1` (single isomer, unassigned) [Example 115] are 17 nM and 14 nM. In the same order, the values of `[2H]C([2H])([2H])n1cc(Nc2ncc3cc(C#N)n([C@H]4COC[C@@H]4C)c3n2)c(OC2COC(C)(C)C2)n1` (single isomer, unassigned) [Example 110] are 8 nM and 4 nM. The like results for `CC(Oc1nn(C2COC2)cc1Nc1ncc2cc(C#N)n([C@H]3COC[C@@H]3C)c2n1)C(F)(F)F` (single isomer, unassigned) [Example 10] were, in that order, 1 nM and 1 nM.

With `C[C@@H]1COC[C@H]1Oc1nn(C)cc1Nc1ncc2cc(C#N)n([C@H]3COC[C@@H]3C)c2n1` (single isomer, unassigned) [Example 3], the IC50 in experiment [1] was found to be 4 nM; in experiment [2] it was 5 nM. In the same order, the values of `C[C@@H]1COC[C@H]1Oc1nn(C)cc1Nc1ncc2cc(C#N)n([C@H]3COC[C@@H]3C)c2n1` (single isomer, unassigned) [Example 2] are 5 nM and 5 nM. Take `COCCn1cc(Nc2ncc3cc(C#N)n([C@@H](C)COC)c3n2)c(OC2CC2)n1` [Example 103, (S)-2-((3-cyclopropoxy-1-(2-methoxyethyl)-1H-pyrazol-4-yl)amino)-7-(1-methoxypropan-2-yl)-7H-pyrrolo[2,3-d]pyrimidine-6-carbonitrile]: the half-inhibitory concentration (IC50) in experiment [1] was 31 nM; in experiment [2] it was 35 nM. For the compound `[2H]C([2H])([2H])n1cc(Nc2ncc3cc(C#N)n([C@@H](C)COC)c3n2)c(OC2C(C)(C)C(O)C2(C)C)n1` (single isomer, unassigned) [Example 133], the values for the IC50 in experiment [1] and in experiment [2] were 14 nM and 13 nM, respectively.

For `C[C@H]1COC[C@@H]1n1c(C#N)cc2cnc(Nc3ccc(CN(C)C)cc3OC3CC3)nc21` [Example 41, 2-((2-Cyclopropoxy-4-((dimethylamino)methyl)phenyl)amino)-7-((3R,4R)-4-methyltetrahydrofuran-3-yl)-7H-pyrrolo[2,3-d]pyrimidine-6-carbonitrile], the IC50 was 3 nM in experiment [1] and 4 nM in experiment [2]. In the same order, the values of `[2H]C([2H])([2H])n1cc(Nc2ncc3cc(C#N)n([C@H]4COC[C@@H]4C)c3n2)c(OC2COC2(C)C)n1` (single isomer, unassigned) [Example 119] are 17 nM and 12 nM. The like results for `COC[C@H](C)n1c(C#N)cc2cnc(Nc3cn(CS(C)(=O)=O)nc3OC3COC3)nc21` [Example 93, 7-[(1S)-2-Methoxy-1-methyl-ethyl]-2-[[1-(methylsulfonylmethyl)-3-(oxetan-3-yloxy)pyrazol-4-yl]amino]pyrrolo[2,3-d]pyrimidine-6-carbonitrile] were, in that order, 4 nM and 8 nM. The like results for `[2H]C([2H])([2H])n1cc(Nc2ncc3cc(C#N)n([C@@H](C)COC)c3n2)c(O[C@@H]2COC[C@@H]2O)n1` (single isomer, unassigned) [Example 136] were, in that order, 81 nM and 95 nM.

On to `COCC(C)n1c(C#N)cc2cnc(Nc3cn(C4CCC(C)(O)CC4)nc3OC(C)C)nc21` [Example 105, trans-2-((1-(4-hydroxy-4-methylcyclohexyl)-3-isopropoxy-1H-pyrazol-4-yl)amino)-7-((S)-1-methoxypropan-2-yl)-7H-pyrrolo[2,3-d]pyrimidine-6-carbonitrile], for which the half-maximal inhibitory concentration (IC50) in experiment [1] came out at 57 nM; in experiment [2], 62 nM. The like results for `C[C@@H]1OC[C@H]1n1c(C#N)cc2cnc(Nc3cn(C)nc3OC3COC3)nc21` (single isomer, unassigned) [Example 76, 7-[(trans)-2-methyloxetan-3-yl]-2-[[1-methyl-3-(oxetan-3-yloxy)pyrazol-4-yl]amino]pyrrolo[2,3-d]pyrimidine-6-carbonitrile] were, in that order, 200 nM and 241 nM. In the same order, the values of `COC[C@H](C)n1c(C#N)cc2cnc(Nc3ccc(C(C)(C)O)cc3OC3CC3)nc21` [Example 154, (S)-2-((2-cyclopropoxy-4-(2-hydroxypropan-2-yl)phenyl)amino)-7-(1-methoxypropan-2-yl)-7H-pyrrolo[2,3-d]pyrimidine-6-carbonitrile] are 1 nM and 2 nM. In the same order, the values of `CC(=O)N1CC(Oc2nn(C)cc2Nc2ncc3cc(C#N)n([C@H]4COC[C@@H]4C)c3n2)C1` [Example 1, 2-[[3-(1-acetylazetidin-3-yl)oxy-1-methyl-pyrazol-4-yl]amino]-7-[(3R,4R)-4-methyltetrahydrofuran-3-yl]pyrrolo[2,3-d]pyrimidine-6-carbonitrile] are 5 nM and 6 nM. In experiment [2], `[2H]C([2H])([2H])n1cc(Nc2ncc3cc(C#N)n([C@@H](C)COC)c3n2)c(O[C@@H]2CO[C@H]2C)n1` (single isomer, unassigned) [Example 89] had an IC50 of 9 nM. On to `COC[C@H](C)n1c(C#N)cc2cnc(Nc3cn(C)nc3O[C@@H]3CO[C@H]3C)nc21` (single isomer, unassigned) [Example 87], for which the midpoint of inhibition in experiment [2], the IC50, lay at 8 nM.
